Consider four compounds from ChEMBL document CHEMBL5131452, “Cell-based screening of extracts of natural sources to search for inhibitors of the ubiquitin-proteasome system and identification of proteasome inhibitors from the fungus Remotididymella sp” (Bioorg Med Chem Lett, 2022).

Data set [1] has as its system HeLa. The experiment in a line: Inhibition of UPS-mediated proteolysis in human HeLa cells expressing ODD-luciferase assessed as fold change in increase in luminescence at 2 uM using D-luciferin as substrate incubated for 4 hrs by luciferase reporter gene assay. In kind it is cell-based.
Data set [2] has as its system HeLa. In words: Inhibition of UPS-mediated proteolysis in human HeLa cells expressing ODD-luciferase assessed as increase in luminescence at 2 to 16 uM using D-luciferin as substrate incubated for 4 hrs by luciferase reporter gene assay. Type of data set: cell-based. Particulars: dose 2-16 µM. On the technique in general: A reporter such as luciferase makes a cellular process visible.

The test system of data set [3] is HeLa. The experiment in a line: Cytotoxicity against human HeLa cells expressing ODD-luciferase at 16 uM by MTT assay. Type of data set: toxicity, cell-based. (In general: Tetrazolium dyes change colour on reduction, which living cells bring about.)
Data set [4] has as its system HeLa. The experiment in a line: Inhibition of UPS-mediated proteolysis in human HeLa cells assessed as increase in ubiquitinated proteins at 2 to 24 uM incubated for 24 hrs by western blot analysis. In kind it is cell-based. Particulars: dose 2-24 µM. Background: Immunoblotting shows a protein as a band on a membrane.
Data set [5] addresses T1, Proteasome subunit beta type-10 (Homo sapiens, UniProt P40306).
T1 sequence (P40306 whole entry): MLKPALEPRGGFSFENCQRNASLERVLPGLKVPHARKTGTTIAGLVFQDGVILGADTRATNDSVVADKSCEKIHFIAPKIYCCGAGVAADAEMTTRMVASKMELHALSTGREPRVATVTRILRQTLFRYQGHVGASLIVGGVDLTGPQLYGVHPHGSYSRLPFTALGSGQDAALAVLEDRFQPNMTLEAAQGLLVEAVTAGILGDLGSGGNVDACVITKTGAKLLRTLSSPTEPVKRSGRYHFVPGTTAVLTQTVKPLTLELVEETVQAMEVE
In words: Inhibition of human proteasome subunit beta type-2i using fluorogenic substrate by UV-spectrometry.

The target of data set [6] is T2, Proteasome subunit beta type-8 (Homo sapiens, UniProt P28062).
T2 sequence (P28062 whole entry): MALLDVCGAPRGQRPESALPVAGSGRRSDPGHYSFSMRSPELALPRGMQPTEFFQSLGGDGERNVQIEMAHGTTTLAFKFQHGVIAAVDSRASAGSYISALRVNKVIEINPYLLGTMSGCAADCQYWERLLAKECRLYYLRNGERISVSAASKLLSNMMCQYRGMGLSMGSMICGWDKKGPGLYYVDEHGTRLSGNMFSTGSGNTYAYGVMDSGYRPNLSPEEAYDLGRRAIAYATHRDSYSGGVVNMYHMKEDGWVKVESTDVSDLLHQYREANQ
The experiment in a line: Inhibition of human proteasome subunit beta type-5i using fluorogenic substrate by UV-spectrometry.

For data set [7], the target named is T3, Proteasome subunit beta type-9 (Homo sapiens, UniProt P28065).
T3 sequence (P28065 whole entry): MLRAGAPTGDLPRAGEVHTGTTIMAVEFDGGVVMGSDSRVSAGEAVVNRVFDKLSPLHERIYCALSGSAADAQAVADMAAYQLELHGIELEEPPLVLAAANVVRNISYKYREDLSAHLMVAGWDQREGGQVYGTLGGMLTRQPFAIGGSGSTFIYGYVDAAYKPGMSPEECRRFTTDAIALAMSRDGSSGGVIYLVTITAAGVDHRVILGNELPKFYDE
The experiment in a line: Inhibition of human proteasome subunit beta type-1i in using fluorogenic substrate by UV-spectrometry.

Data set [8] has as its target T4, Proteasome Macropain subunit MB1 (Homo sapiens, UniProt P28074).
T4 sequence (P28074 whole entry): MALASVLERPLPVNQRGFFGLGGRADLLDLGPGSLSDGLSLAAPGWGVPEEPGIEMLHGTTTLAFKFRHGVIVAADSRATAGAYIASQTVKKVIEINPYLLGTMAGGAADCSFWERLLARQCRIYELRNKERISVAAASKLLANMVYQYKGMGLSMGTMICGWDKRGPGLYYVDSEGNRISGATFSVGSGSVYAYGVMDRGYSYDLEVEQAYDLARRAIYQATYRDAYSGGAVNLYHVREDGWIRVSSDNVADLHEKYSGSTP
In words: Inhibition of human constitutive proteasome subunit beta type-5 in human erythrocytes using fluorogenic substrate by UV-spectrometry. In kind it is cell-based, Erythrocyte.

Activity calls are given as the source filed them. The rule behind the calls is not given here.

Consider `CCC(C)/C=C(\C)C1=Cc2cc3c(c(O)c2CO1)C(=O)C(=O)C(OC)=C3` (centres undefined), for which, in the data set with HeLa [1], the fold change (FC) was 2.5. The inhibition result with HeLa [2] and in the data set with HeLa [4] was “Active” throughout. In addition, the Activity entry in the data set on HeLa [3] is listed as “Toxic”.

For orientation: IC50 means the concentration that gives 50% inhibition. Read a high IC50 as weaker potency in that assay. Turning to `CCC(C)/C=C(\C)c1cc2c(cn1)C(=O)c1c(cc(OC)c(O)c1O)C2=O` (centres undefined), the IC50 in data set [5] is 43 µM; in data set [6], 40 µM; in data set [7], greater than 50 µM; in data set [8], 16 µM.

For the compound `CCC(C)/C=C(\C)c1cc2c(cn1)C(=O)C1=C(N)C(=O)C(OC)=CC1=C2` (centres undefined), the IC50 in data set [5] is 33 µM; in data set [6], 20 µM; in data set [7], greater than 50 µM; in data set [8], 22 µM. Moreover, the inhibition result in the data set on HeLa [2] was “Active”. Moreover, the Activity entry in the data set on HeLa [3] is reported as “Toxic”.

Regarding `CCC(C)/C=C(\C)C1=Cc2cc3c(c(O)c2CO1)C(=O)C(O)(CC(C)=O)C(OC)=C3` (centres undefined), the concentration for half-maximal inhibition (IC50) is 30 µM in data set [5], 50 µM in data set [6], greater than 50 µM in data set [7] and 46 µM in data set [8]. In addition, in the data set with HeLa [2], the inhibition entry is “Active”.
